Experimental data as given in patent US6300327A, “Compositions and methods for potentiation of neurotrophin activity” (The University of Southern California, priority 1997, dated 2001).
“Also recorded” adds a separate entry of the source. Read-outs that look alike come from different tables or passages of the source.

Tests used:
protein kinase C = details: in vitro assay systems; cited from earlier work
trk = assay: Cell-free tyrosine phosphorylation of recombinant human trk expressed in Sf9 insect cells; format: biochemical; details: 10 μM K-252b
Experimental: (§1) Human trk and trkB were expressed in Sf9 insect cells transfected using a baculovirus system. The trk proteins were immunoprecipitated as described above and the precipitates were incubated with 20 μCi [gamma-^32 P]ATP, 10 mM MnCl2, 20 mM Tris, pH 7.4, for 5 min at 25° C. in the presence of increasing amounts of K-252b or control solution. Phosphorylated proteins were analyzed as described for FIG. 4B. The tyrosine kinase activity of the trk and trkB proteins was activated in the absence of ligand, a common observation for receptor tyrosine kinase produced in the baculovirus system. The trk and trkB proteins were 25% pure as assayed by SDS-PAGE.
(§2) K-252b interacts directly with the trk and trkB protein. Human trk and trkB were expressed in Sf9 insect cells transfected using a baculovirus system. trk proteins were immunoprecipitated and the precipitates were incubated with [gamma^32 P]ATP in the presence of increasing amounts of K-252b or control solution.

[1] = test system: chick dorsal root ganglia neurons (DRG); assay: Survival of dissociated chick DRG neurons (embryonic day 9); format: cell-based
Experimental: DRGs of embryonic day 9 chicks were dissected and dissociated using enzymatic and mechanical procedures as described in the literature [Rosenthal, A. et al., "Primary Structure and Biological Activity of a Novel Human Neurotrophic Factor," Neuron 4:767-773 (1990)]. 1800 neurons were plated per well in 96-well tissue culture plates pretreated with polyornithine (500 μg/ml) and laminin (10 μg/ml). Cells were incubated for 48 hrs with or without growth factors and the indicated concentrations of K-252b. Phase-bright cells with elaborated neurites 5× the diameter of the cell bodies were then counted.
Similar to the findings obtained in primary cultures of brain cholinergic neurons, low concentration of K-252b (50 nM) potentiated the survival promoting action of a maximally effective concentration of NT-3 (FIG. 3). Survival of dissociated chick DRG neurons in presence of rhNGF (100 ng/ml) or rhNT-3 (100 ng/ml) and K-252b is illustrated in FIG. 3; concentrations on the horizontal axis are for K-252b. The columns represent means +SEMs. […] High concentrations of K-252b (10 μM) inhibited the action of NGF on sensory neurons, as found for cholinergic neurons (FIG. 3).

[2] = test system: protein kinase activity of the platelet-derived growth factor; details: cell-free preparations; cited from earlier work
neurotrophin activity = assay: Neurotrophin potentiation in vitro (overall statements); format: cell-based
trkB = assay: Cell-free tyrosine phosphorylation of recombinant human trkB expressed in Sf9 insect cells; format: biochemical; details: 10 μM K-252b
Experimental: as §1, §2

[3] = test system: midbrain dopaminergic neurons (cultures of ventral mesencephalon); assay: Dopamine uptake in primary cultures of fetal rat ventral mesencephalon; format: cell-based; details: for activity at 5 µM: Rattus norvegicus, Neuron; for Dopamine uptake, Mean ± SEM: n=4
Experimental: Primary cultures of fetal rat brain septal and mesencephalic cells were prepared in a heretofore known manner [Knusel et al., supra]. Briefly, defined areas were dissected from fetal rat brains (Wistar, E15-16, Charles River, Mass.). The septal area contained the cholinergic neurons from septum, diagonal band of Broca and nucleus basalis. The ventral mesencephalon containing the dopaminergic neurons of the substantia nigra and the ventral tegmental area was dissected and dissociated mechanically. The cells were plated in 16 mm multiwell plates precoated with polyethyleneimine (1 mg/ml, 37° C., overnight), containing 0.5 ml modified L-15 medium supplemented with 5% heat inactivated horse serum and 0.5% heat inactivated fetal calf serum. Modified L-15 was prepared [Knusel et al., "Selective and Nonselective Stimulation of Central Cholinergic and dopaminergic Development in vitro by Nerve Growth Factor, Basic Fibroblast Growth Factor, Epidermal Growth Factor, Insulin and the Insulin-like Growth Factors I and II," J. Neurosci. 10:558-570 (1990)] by adding various amino acids, vitamins, antibiotics, glucose and NaHCO3 to Leibovitz's L-15 medium (Gibco, Grand Island, N.Y.). Plating densities were 4×10^5 cells/cm^2 for basal forebrain cultures and 3×10^5 cells/cm^2 for mesencephalic cultures. Of these cells, 0.5 to 1% were cholinergic or dopaminergic, respectively. Growth factors were typically added on the second day of culture and the cells were grown for 5 or more days. For ChAT assays tissue was homogenized in 250 μl of 50 mM Tris-HCl buffer, pH 6.0 with 0.3% Triton X-100. [1-^14 C]acetylcoenzyme A (NEN) concentration was 20 μM and specific activity 4.09 Ci/mol. To measure dopamine uptake, cultures were preincubated for 5 min at 37° C. with 250 μl incubation solution (5 mM glucose, 1 mM ascorbic acid in PBS) containing 1 mM pargyline. [^3 H]dopamine (37 Ci/mmol) was then added to give a final concentration of 50 nM and the cultures were incubated for another 15 minutes. Blanks were obtained by incubating cells at 0° C.
In Table 1, dopamine uptake is given as fmol/min/culture dish. Cultures were grown in 24-well plates for 7 days in L-15 medium with 5% horse and 0.5% fetal bovine serum and treated with growth factors and K-252b from the second day of culture. rhBDNF, 200 ng/ml; des-IGF-1, 1 μg/ml; n=4; *different from respective control group, p <0.01 (Student's t-test). The apparent difference between control cultures grown in presence and absence of K-252b was statistically not significant. The experiment shown is a representative case of a total of 5 independent experiments.

[4] = target: cGMP-dependent protein kinase; details: in vitro assay systems; cited from earlier work

Compound: CC12OC(CC1(O)C(=O)O)n1c3ccccc3c3c4c(c5c6ccccc6n2c5c31)CNC4=O (centres unmarked) [K-252b]
- Ki (protein kinase C): 10 to 100 nM
- effect on trk tyrosine phosphorylation, cell-free system (trk): completely prevented
- effect on survival mediated by NGF or BDNF ([1]; 50 nM K-252b): failed to influence survival
- number of neurons supported by combination with NT-3 ([1]; 50 nM K-252b + NT-3): identical to that supported by NGF alone
- effect on survival promoting action of NT-3 ([1]; 50 nM K-252b, rhNT-3 100 ng/ml): potentiated
- effect on action of NGF on sensory neurons ([1]; 10 μM K-252b, rhNGF 100 ng/ml): inhibited
- inhibition of protein kinase activity of the platelet-derived growth factor [2]: inhibits
- effect on actions of NT-3 (neurotrophin activity; nM concentrations): selectively potentiates
- effect on actions of all neurotrophins (neurotrophin activity; μM concentrations): inhibits the actions of all neurotrophins
- effect on trkB tyrosine phosphorylation, cell-free system (trkB): completely prevented
- effect on increase in dopamine uptake mediated by BDNF ([3]; K-252b 5 μM (Table 1)): prevented the increase in dopamine uptake; also recorded: inhibits the stimulatory action
- activity at 5 µM ([3]; read-out: Dopamine uptake, % of Control, With K-252b (5 μM) + des-IGF-1 1 μg/ml): 201%
- activity at 5 µM ([3]; read-out: Dopamine uptake, % of Control, With K-252b (5 μM) + rhBDNF 200 ng/ml): 119%
- Dopamine uptake, Mean ± SEM ([3]; With K-252b (5 μM) + des-IGF-1 1 μg/ml): 22.9 ± 1.0 fmol/min/culture dish
- Dopamine uptake, Mean ± SEM ([3]; With K-252b (5 μM) + rhBDNF 200 ng/ml): 13.6 ± 0.7 fmol/min/culture dish
- Dopamine uptake, Mean ± SEM ([3]; With K-252b (5 μM), no growth factor (Control)): 11.4 ± 0.2 fmol/min/culture dish
- effect on stimulatory action of bFGF and insulin on dopamine uptake ([3]; bFGF and insulin): does not inhibit
- effect on stimulatory action of des-IGF-1 on dopamine uptake ([3]; des-IGF-1 1 μg/ml): not to inhibit
- effect on action of BDNF on dopaminergic neurons ([3]; low concentrations of K-252b): did not potentiate
- Ki [4]: 10 to 100 nM
